This note sets out measurements from patent US4564476A, “Aryl fatty acid leukotriene synthesis inhibitors” (McNeilab, Inc., priority 1984, dated 1986).

One may read the IC50 as the concentration that inhibits the measured activity by half.

The test system of experiment [1] is guinea pig lung parenchymal tissue. The experiment can be described thus: Immunologically Mediated Contraction of the Parenchymal Strip (IMCPS). Also on record: species or system guinea pig (male Hartley strain). As to conditions: Cavia porcellus, egg albumin induced contraction of sensitized guinea pig lung parenchymal strip, with chlorpheniramine 10.0 μM and indomethacin 100.0 μM, relative to control tissue, read-out: IMCPS % inhib. 100 μM. The protocol: (a) Immunologically Mediated Contraction of the Parenchymal Strip (IMCPS)
It is a modification of the procedure published by K. Forsberg and L. Sorenby in Agents and Actions, Vol. 9 pp. 364-368 (1978). In this test, male Hartley strain guinea pigs weighing 400 to 600 g were sensitized by subcutaneous administration of chicken egg albumin (Sigma A-5503, 1.0 mg, 0.5% solution) and bordetella pertussis, 11×10^9 cells (Massachusetts Public Health Biological Labs) 4 to 8 weeks prior to the experiment. The animals were sacrificed, the heart and lungs were removed en bloc and placed in Krebs solution at room temperature. Lung strips (2.5 cm in length) were cut from the peripheral edge of each lobe. Two strips were removed from each animal and were trimmed to be of equal length. Each strip was suspended in an isolated organ bath (10.0 ml) containing oxygenated Krebs buffer solution at 37.5° C. then attached to a force displacement transducer (Grass FT03) and placed under an initial tension of 1.0 g. The tissues were allowed to equilibrate for 45-60 minutes, during which the bathing solution was changed several times. At the end of the equilibration period, chlorpheniramine (10.0 μM) and indomethacin (100.0 μM) were added to eliminate the contribution of histamine and prostaglandins to the contractile response. The two tissues from each animal were matched so that one tissue served as a control, and the test drug dissolved in DMSO was added to the bath containing the other tissue at a final concentration of 100 μM. After 30 minutes, egg albumin was added to each bath and the contractile response was measured as milligrams of tension developed as recorded on a Grass Model 7D polygraph.

The subject of experiment [2] is lipoxygenase metabolites released or generated from human granulocyte cells. The experiment can be described thus: Human Granulocyte Assay for Lipoxygenase Products (HGALP). It is filed as cell-based. Particulars: [3H]-arachidonic acid prelabeled human granulocytes, 10 μM ionophore A23187 challenge, 14 μM indomethacin. The protocol:
(b) Human Granulocyte Assay for Lipoxygenase Products (HGALP)
This test is a measurement of the inhibition of the synthesis or release of [3H]-labeled lipoxygenase metabolites released or generated from human granulocyte cells that are prelabeled with [3H]-arachidonic acid. These metabolites include the leukotrienes (e.g., LTB4) which are potent mediators of inflammation and allergy. In this test, a granulocyte enriched fraction is prepared from freshly drawn human blood (50 ml/donor) by standard techniques involving unit gravity separation on ficoll hypaque. Cells are prelabeled with [3H]-arachidonic acid (20 μCi in 2 ml cell suspension) during a 30 min. incubation at 37° C. After washing out unincorporated label, the radiolabeled cells are brought up in incubation buffer (Minimum Essential Medium containing 14 μM indomethacin) to a 10^7 cell/ml concentration. Cell suspensions (1 ml/sample) are preincubated for 5 min. in the presence or absence of test drugs delivered in 5 μl dimethylsulfoxide (DMSO). Cell suspensions are challenged with 10 μM ionophore A23187 to activate the calcium-dependent metabolism of [3H]-arachidonic acid. After a 5 min. incubation at 37° C., incubations are terminated by the addition of 1 ml ice cold phosphate buffered saline, and cells are pelleted by centrifugation. Supernatants are passed through C18 Sep Pak® cartridges which are then washed twice with 1 ml water. Lipoxygenase metabolites are eluted with two 1 ml volumes of methanol. Eluates are collected in scintillation vials and counted in Aqueous Counting Scintillant (ACS). Radioactivity eluted with methanol is a measure of lipoxygenase metabolites. Values are normalized to vehicle (5 μl DMSO) treated controls and expressed as percent inhibition. Triplicate determinations at each drug concentration are analyzed as log-dose response curves by linear regression analysis from which IC50 values are derived.

For experiment [3] the test system is unchanged. Described as above. It is filed as cell-based. As to conditions: [3H]-arachidonic acid prelabeled human granulocytes, 10 μM ionophore A23187.

For `CN(C)C(=O)CCC/C=C\C(C)(C)COCc1ccccc1` [Example 2, N,N,7,7-Tetramethyl-8-(phenylmethoxy)-5(Z)-octenamide], the inhibition at 100 µM in experiment [1] stood at 19%. For the same compound, the IC50 in experiment [2] came to 42 µM.

For the compound `CC(C)(C=Cc1ccc(Cl)cc1)/C=C\CCCC(=O)O` [Example 9, 9-(4-Chlorophenyl)-7,7-dimethyl-5(Z),8-nonadienoic acid], the inhibition at 100 µM in experiment [1] stood at 76%. Besides, the IC50 in experiment [2] was 19 µM.

In the case of `CC(C)(/C=C\CCCC(=O)O)COCc1ccccc1` [Example 1c, 7,7-Dimethyl-8-(phenylmethoxy)-5(Z)-octenoic Acid], the inhibition at 100 µM in experiment [1] was determined as 79%.

Regarding `CC(C)(/C=C\CCCC(=O)O)COCc1ccc(O)cc1` [Example 7, 7,7-Dimethyl-8-(4-hydroxyphenylmethoxy)-5(Z) Octenoic Acid], the inhibition at 100 µM in experiment [1] was found to be 4%. Also, the IC50 in experiment [2] came out at 255 µM.

Consider `CC(C)(/C=C\CCCCO)COCc1ccccc1` [Example 4, 7,7-Dimethyl-8-(phenylmethoxy)-5(Z)-octenol], for which, in experiment [1], the inhibition at 100 µM was determined as 38%. For the same compound, the IC50 in experiment [2] is 17 µM.

Regarding `COC(=O)CCC/C=C\C(C)(C)C=Cc1ccc(Cl)cc1` [Example 8c, Methyl 9-(4-chlorophenyl)-7,7-dimethyl-5(Z),8-nonadienoate], the inhibition at 100 µM in experiment [1] stood at 15%. Moreover, the IC50 in experiment [2] came out at 6.6 µM.

In the case of `CC(C)(/C=C\CCCC(=O)O)COCC=Cc1ccccc1` [Example 10c, 7,7-Dimethyl-8-(3-phenyl-2-propenoxy)-5(Z) octenoic Acid], the inhibition at 100 µM in experiment [1] came out at 44%; in experiment [3], 5%.

For the compound `COC(=O)CCC/C=C\C(C)(C)COCc1ccc(O)cc1` [Example 6, Methyl 7,7-dimethyl-8-(4-hydroxyphenylmethoxy)-5(Z)-octenoate], the inhibition at 100 µM in experiment [1] is 49%. Besides, in experiment [2], the 50% inhibitory concentration (IC50) amounted to 39 µM.

Regarding `CCCC=Cc1ccccc1COCC(C)(C)/C=C\CCCC(=O)O` [Example 11g, 7,7-Dimethyl-8-[2(1-pentenyl)phenylmethoxy]-5(Z)octenoic acid], in experiment [1], the inhibition at 100 µM turned out to be 40%. Besides, the IC50 in experiment [2] worked out at 96 µM.

Take `COc1ccc(COCC(C)(C)/C=C\CCCC(=O)O)cc1` [Example 5c, 7,7-Dimethyl-8-(4-methoxyphenylmethoxy)-5(Z)-octenoic Acid]: the inhibition at 100 µM in experiment [1] amounted to 31%; in experiment [3], 18%.
